Measurements: patent US9018440B2, “Fluorescent mouse model” (Stowers Institute for Medical Research, priority 2006, dated 2015)

How the values were obtained:
[1] = test system: glomeruli / sensory neurons of the olfactory bulb; assay: Odor stimulation of OMP-tTA-G-CaMP2 compound transgenic mice, fluorescence imaging of olfactory bulb; assay type: in vivo, mouse; settings: for course of G-CaMP2 intensity as the activation sequence progressed: FIGS. 10E and 11E; for sequence of glomeruli activation over length of odor exposure: FIGS. 10 and 11; for subset of sensory neurons / glomeruli activated by odor: different odors alone or combined, FIGS. 9 and 12; for activation of G-CaMP2 fluorescence in glomeruli by odor: odor delivered to the nose, thinned skull, FIG. 5
Method: The compound transgenic mice (“transgenic mice”) containing the G-CaMP2 indicator targeted to the olfactory neurons may be used to evaluate neuron stimulation and map the signals sent in the brain. The response of sensory neurons was analyzed by stimulating transgenic mice with odor of varying concentrations. After anesthetizing mice with an injection of ketamine, the skin over the olfactory bulb was removed and the underlying skull covering the olfactory bulb was surgically thinned. The mice were then secured on an imaging plate and placed underneath a fluorescent microscope for imaging analysis. Background fluorescence was detected before odor stimulation (FIG. 5A). […] Amyl Acetate of various concentrations was also delivered to the nose of the animals using a custom made olfactometer. […] Odor delivery excited the sensory neurons, which generated action potentials that reached both olfactory bulbs.
The concentration of odor presented also activated glomeruli in a dose dependent manner (FIGS. 12C and 12D).
Animals are anesthetized with Ketamin/Xylazine cocktail and the righting reflex of the hind limbs are tested prior to surgery. Once deeply anesthetized, the hair over the head is shaved with a razor blade and a midline incision is made in the skin covering the skull to expose the olfactory bulb. For direct imaging, a head holder is glued to the bone and the animal is mounted to the microscope stage with the olfactory bulb region positioned right under the lens. (FIGS. 9 and 10). For bone thinning imaging, micro dental tools wet with saline are used to scrape the surface of the bone covering the olfactory bulb. Occasional air puffs are used to cool the thinning surface to prevent heat damage of the brain tissue. We normally stop when the bone can be indented by the gentle tough of a forceps tip, which is about 50 μm thick. The surface is then gently cleaned with saline and the head holder is attached for mounting the animal to the microscope.

[2] = test system: G-protein coupled muscarinic acetylcholine receptors; assay: Acetylcholine challenge of HEK 293 cells co-transfected with TetO-G-CaMP2 and CMV-VP22-tTA, G-CaMP2 fluorescence; assay type: cell-based, human; settings: 10 μM acetylcholine, HEK 293 TetO-G-CaMP2 + CMV-VP22-tTA, excited at 488 nm
Method: Cells co-transfected with the two plasmids show fluorescence, while cells with only one of the plasmids, or neither, are not fluorescent (Control, FIG. 1A). The addition of 10 μM acetylcholine (ACH) induces a subpopulation of cells to respond with increases in fluorescence (FIG. 1B). Acetylcholine activates G-protein coupled muscarinic acetylcholine receptors and mobilizes intracellular calcium. Arrows point to three of the responsive cells (a, b, and c of both FIGS. 1A and 1B).
(AFU: artificial fluorescence unit).
Human embryonic kidney cells (HEK 293) were co-transfected with TetO-G-CaMP2 and a construct containing a tetracycline transactivator protein under the control of a ubiquitous promoter (CMV-VP22-tTA). […] The change in fluorescence indicated proper function of the G-CaMP2 sensor combined with the tetracycline inducible system.

## CCCC=O [butyraldehyde]
[1]
  course of G-CaMP2 intensity as the activation sequence progressed: continued to increase
  sequence of glomeruli activation over length of odor exposure: sequentially activated glomeruli
  subset of sensory neurons / glomeruli activated by odor: activated

## CC(=O)OCC[N+](C)(C)C [acetylcholine]
[2]; FIG. 2A
  increase in fluorescence, cell A: approximately 90 AFU
[2]; FIG. 2B
  increase in fluorescence, cell B: approximately 95 AFU
[2]; FIG. 2C
  increase in fluorescence, cell C: approximately 50 AFU

## CCCCCOC(C)=O [amyl acetate]
[1]
  subset of sensory neurons / glomeruli activated by odor: activated different neurons
  activation of G-CaMP2 fluorescence in glomeruli by odor: several glomeruli activating G-CaMP2 fluorescence
[1]; various concentrations, olfactometer, FIG. 6
  response of right and left olfactory bulbs to various odor concentrations: both the right and left olfactory bulbs were similarly stimulated

## CCCCCC(=O)O [hexanoic acid]
[1]
  subset of sensory neurons / glomeruli activated by odor: activated

## CCCCCCCC=O [octanal]
[1]
  course of G-CaMP2 intensity as the activation sequence progressed: decrease in G-CaMP2 expression
  sequence of glomeruli activation over length of odor exposure: activated several different glomeruli sequentially
  activation of G-CaMP2 fluorescence in glomeruli by odor: response of several glomeruli to activate G-CaMP2 fluorescence
